Columns and labels:
Leishmania major [1] = test: Antileishmanial activity against intracellular amastigotes form of Leishmania major assessed as inhibition of parasite growth by alamar-blue reduction assay; assay type: functional, organism-based
Leishmania major [2] = test: Antileishmanial activity against […] promastigote form of Leishmania major assessed as inhibition of parasite growth by alamar-blue reduction assay; assay type: functional, organism-based
[3] = Renal toxicity in male mouse assessed as serum creatinine level at 50 mg/kg, ip measured after 48 hrs (reference value: 0.66 +/- 0.02 mg/dl); assay type: organism-based; conditions: in vivo
[4] = Hepatotoxicity in male mouse assessed as AST level at 200 mg/kg, ip measured after 48 hrs (reference value: 47.72 +/- 4.77 U/L); assay type: toxicity, organism-based; conditions: in vivo
[5] = Cytotoxicity against African green monkey Vero cells assessed as reduction in cell survival incubated for 72 hrs by crystal violet staining based analysis; assay type: toxicity; conditions: chlorocebus sabaeus
[6] = Hepatotoxicity in male mouse assessed as AST level at 50 mg/kg, ip measured after 48 hrs (reference value: 47.72 +/- 4.77 U/L); assay type: toxicity, organism-based; conditions: in vivo
Leishmania major [7] = test: Antileishmanial activity against Leishmania major promastigotes assessed as parasite survival preincubated with 100 uM folinic acid for 1 hrs followed by compound addition and measured after 48 hrs by hemocytometric analysis relative to control; assay type: functional
[8] = Selectivity index, ratio of CC50 for cytotoxicity against African green monkey Vero cells assessed as reduction in cell viability to IC50 for antileishmanial activity against Leishmania major amastigotes assessed as inhibition of parasite growth; assay type: toxicity, cell-based; conditions: read-out: Ratio CC50/IC50
Leishmania major [9] = test: Antileishmanial activity against Leishmania major promastigotes assessed as parasite survival preincubated with 20 uM folinic acid for 1 hrs followed by compound addition and measured after 48 hrs by hemocytometric analysis relative to control; assay type: functional
[10] = Hepatotoxicity in male mouse assessed as effect on ALP level at 200 mg/kg, ip measured after 48 hrs (reference value: 115.44 +/- 8.03 U/L); assay type: toxicity, organism-based; conditions: in vivo
[11] = Renal toxicity in male mouse assessed as serum creatinine level at 200 mg/kg, ip measured after 48 hrs (reference value: 0.66 +/- 0.02 mg/dl); assay type: organism-based; conditions: in vivo
[12] = Hepatotoxicity in male mouse assessed as ALT level at 50 mg/kg, ip measured after 48 hrs (reference value: 28.23 +/- 6.57 U/L); assay type: toxicity, organism-based; conditions: in vivo
Leishmania major [13] = test: Antileishmanial activity against Leishmania major promastigotes assessed as parasite survival preincubated with 100 uM folic acid for 1 hrs followed by compound addition and measured after 48 hrs by hemocytometric analysis relative to control; assay type: functional
[14] = Toxicity in male mouse assessed as CK-MB level at 50 mg/kg, ip measured after 48 hrs (reference value: 41.27 +/- […]); assay type: organism-based; conditions: in vivo
[15] = Renal toxicity in male mouse assessed as serum urea level at 200 mg/kg, ip measured after 48 hrs (reference value: 36.51 +/- 1.51 mg/dl); assay type: organism-based; conditions: in vivo
[16] = Hepatotoxicity in male mouse assessed as ALP level at 50 mg/kg, ip measured after 48 hrs (reference value: 115.44 +/- 8.03 U/L); assay type: toxicity, organism-based; conditions: in vivo
Leishmania major [17] = test: Antileishmanial activity against Leishmania major promastigotes assessed as parasite survival preincubated with 20 uM folic acid for 1 hrs followed by compound addition and measured after 48 hrs by hemocytometric analysis relative to control; assay type: functional
Leishmania major [18] = test: Antileishmanial activity against Leishmania major promastigotes assessed as parasite survival measured after 72 hrs by hemocytometric analysis relative to control; assay type: functional
[19] = Hepatotoxicity in male mouse assessed as ALT level at 200 mg/kg, ip measured after 48 hrs (reference value: 28.23 +/- 6.57 U/L); assay type: toxicity, organism-based; conditions: in vivo
[20] = Renal toxicity in male mouse assessed as serum urea level at 50 mg/kg, ip measured after 48 hrs (reference value: 36.51 +/- 1.51 mg/dl); assay type: organism-based; conditions: in vivo
[21] = Toxicity in male mouse assessed as CK-MB level at 200 mg/kg, ip measured after 48 hrs (reference value: 41.27 +/- […]); assay type: organism-based; conditions: in vivo
Leishmania infantum = test: Antileishmanial activity against Leishmania infantum MHOM/MA(BE)/67 infected in mouse peritoneal macrophage cell incubated for 5 days by giemsa staining based analysis; assay type: functional, organism-based; conditions: MHOM/MA(BE)/67, Peritoneal macrophage cell, 120 h
Leishmania major [22] = test: Antileishmanial activity against Leishmania major promastigotes assessed as parasite survival at 100 uM measured after 72 hrs by hemocytometric analysis relative to control

Question: Which IC50 (Leishmania major [1]) does the source give for `CCCN1C(=O)C(n2nc(-c3c(O)c4ccccc4oc3=O)cc2-c2ccc(Cl)cc2)c2cc(Cl)ccc21` (stereo unspecified) here?
Answer: The IC50 was 7.29 µM.

Question: And the IC50 (Leishmania major [2])?
Answer: The IC50 was 5.6 µM.

Question: With `O=C1Nc2ccc([N+](=O)[O-])cc2C1n1nc(-c2c(O)c3ccccc3oc2=O)cc1-c1ccc(Br)cc1` (stereo unspecified) as the compound, how does the IC50 (Leishmania major [1]) read?
Answer: The IC50 was 3.88 µM.

Question: What about the IC50 (Leishmania major [2]) of the same compound?
Answer: The IC50 was 2.47 µM.

Question: With `O=C1Nc2ccc([N+](=O)[O-])cc2C1n1nc(-c2c(O)c3ccccc3oc2=O)cc1-c1ccc(Cl)cc1` (stereo unspecified) as the compound, how does the Activity [3] read?
Answer: Its Activity is 0.62 mg/dL.

Question: And the Activity [4]?
Answer: Its Activity is 48.89 U/L.

Question: And the CC50 at 72 h [5]?
Answer: Its CC50 at 72 h is 60.7 µM.

Question: And the Activity [6]?
Answer: The Activity was 45.98 U/L.

Question: What about the Survival (Leishmania major [7]) of the same compound?
Answer: The Survival was 85%.

Question: What about the selectivity ratio [8] of the same compound?
Answer: The selectivity ratio was 42.3.

Question: And the Survival (Leishmania major [9])?
Answer: Its Survival is 78%.

Question: And the Activity [10]?
Answer: The Activity was 113.63 U/L.

Question: And the Activity [11]?
Answer: The Activity was 0.61 mg/dL.

Question: What about the Activity [12] of the same compound?
Answer: The Activity was 29.39 U/L.

Question: What about the Survival (Leishmania major [13]) of the same compound?
Answer: The Survival was 73%.

Question: And the Activity [14]?
Answer: The Activity was 44.71 U/L.

Question: And the Activity [15]?
Answer: The Activity was 38.32 mg/dL.

Question: What about the IC50 (Leishmania major [1]) of the same compound?
Answer: Its IC50 is 1.44 µM.

Question: What about the Activity [16] of the same compound?
Answer: The Activity was 106.35 U/L.

Question: And the Survival (Leishmania major [17])?
Answer: The Survival was 68%.

Question: And the Survival (Leishmania major [18])?
Answer: The Survival was 21%.

Question: What about the IC50 (Leishmania major [2]) of the same compound?
Answer: Its IC50 is 1.43 µM.

Question: And the Activity [19]?
Answer: Its Activity is 32.59 U/L.

Question: And the Activity [20]?
Answer: The Activity was 34.17 mg/dL.

Question: What about the Activity [21] of the same compound?
Answer: Its Activity is 44.71 U/L.

Question: With `CCCN1C(=O)C(n2nc(-c3c(O)c4ccccc4oc3=O)cc2-c2ccc(Br)cc2)c2cc(Cl)ccc21` (stereo unspecified) as the compound, how does the IC50 (Leishmania major [1]) read?
Answer: The IC50 was 6.82 µM.

Question: What about the IC50 (Leishmania major [2]) of the same compound?
Answer: The IC50 was 4.73 µM.

Question: What does the source list for `CC(C)CN1C(=O)C(n2nc(-c3c(O)c4ccccc4oc3=O)cc2-c2ccc(Br)cc2)c2cc(Br)ccc21` (stereo unspecified)?
Answer: IC50 (Leishmania major [1]): 8.22 µM; IC50 (Leishmania major [2]): 6.93 µM

Question: For `CCCN1C(=O)C(n2nc(-c3c(O)c4ccccc4oc3=O)cc2-c2ccc(F)cc2)c2cc(Cl)ccc21` (stereo unspecified), which IC50 (Leishmania major [1]) is on record?
Answer: Its IC50 is 5.82 µM.

Question: What about the IC50 (Leishmania major [2]) of the same compound?
Answer: Its IC50 is 4.64 µM.

Question: Which IC50 (Leishmania major [1]) does the source give for `CC(C)CN1C(=O)C(n2nc(-c3c(O)c4ccccc4oc3=O)cc2-c2ccc(Cl)cc2)c2cc(Cl)ccc21` (stereo unspecified) here?
Answer: The IC50 was 8.25 µM.

Question: And the IC50 (Leishmania major [2])?
Answer: The IC50 was 6.59 µM.

Question: For `O=C1C(n2nc(-c3c(O)c4ccccc4oc3=O)cc2-c2ccc(Cl)cc2)c2ccccc2N1CCc1ccccc1` (stereo unspecified), which IC50 (Leishmania major [1]) is on record?
Answer: Its IC50 is 8.47 µM.

Question: What about the IC50 (Leishmania major [2]) of the same compound?
Answer: The IC50 was 5.92 µM.

Question: With `COc1ccc(-c2cc(NC(=O)N3CCC(Cc4ccccc4)CC3)[nH]n2)cc1` as the compound, how does the IC50 (Leishmania infantum) read?
Answer: The IC50 was 19 µM.

Question: Which IC50 (Leishmania major [1]) does the source give for `CN1C(=O)C(n2nc(-c3c(O)c4ccccc4oc3=O)cc2-c2ccc(F)cc2)c2cc(Cl)ccc21` (stereo unspecified) here?
Answer: The IC50 was 6.82 µM.

Question: What about the IC50 (Leishmania major [2]) of the same compound?
Answer: The IC50 was 4.05 µM.

Question: Which results are given for `CC(C)CN1C(=O)C(n2nc(-c3c(O)c4ccccc4oc3=O)cc2-c2ccc(Br)cc2)c2cc(Cl)ccc21` (stereo unspecified)?
Answer: IC50 (Leishmania major [1]): 6.64 µM; IC50 (Leishmania major [2]): 5.07 µM

Question: Which IC50 (Leishmania infantum) does the source give for `O=C(Nc1cc(-c2ccccc2F)n[nH]1)Oc1ccccc1` here?
Answer: The IC50 was 20 µM.

Question: With `CC(C)CN1C(=O)C(n2nc(-c3c(O)c4ccccc4oc3=O)cc2-c2ccc(Cl)cc2)c2cc(Br)ccc21` (stereo unspecified) as the compound, how does the IC50 (Leishmania major [1]) read?
Answer: The IC50 was 7.54 µM.

Question: And the IC50 (Leishmania major [2])?
Answer: The IC50 was 5.99 µM.

Question: Which results are given for `CC(C)CN1C(=O)C(n2nc(-c3c(O)c4ccccc4oc3=O)cc2-c2ccc(F)cc2)c2cc(Br)ccc21` (stereo unspecified)?
Answer: IC50 (Leishmania major [1]): 6.87 µM; IC50 (Leishmania major [2]): 6.22 µM

Question: For `CC(C)CN1C(=O)C(n2nc(-c3c(O)c4ccccc4oc3=O)cc2-c2ccc(F)cc2)c2cc(Cl)ccc21` (stereo unspecified), which IC50 (Leishmania major [1]) is on record?
Answer: The IC50 was 7.28 µM.

Question: And the IC50 (Leishmania major [2])?
Answer: Its IC50 is 5.71 µM.

Question: Which results are given for `COc1cc(Cc2cnc(N)nc2N)cc(OC)c1OC` [TRIMETHOPRIM]?
Answer: survival at 100 µM (Leishmania major [22]): 72%; Survival (Leishmania major [13]): 99%

Question: For `O=C1C(n2nc(-c3c(O)c4ccccc4oc3=O)cc2-c2ccc(Br)cc2)c2ccccc2N1CCc1ccccc1` (stereo unspecified), which IC50 (Leishmania major [1]) is on record?
Answer: The IC50 was 9.44 µM.

Question: And the IC50 (Leishmania major [2])?
Answer: Its IC50 is 7.21 µM.
